Results on eight compounds are retold here after patent US4478840A, “Appetite suppressing compositions and methods” (E. I. Du Pont de Nemours and Company, priority 1983, dated 1984).

One may read the ED50 as the midpoint of the dose-response relation. Read a high ED50 as a need for a large dose.

One test has as its system food-deprived mice. As to conditions: cited from earlier work.
The next test deals with food-deprived rats. To be noted: cited from earlier work.
The subject of a further test is rats. As to conditions: sweetened Enfamil baby formula; subcutaneous; cited from earlier work.
A further test has as its system mammals. To be noted: oral; cited from earlier work.
A further test relates to Female CF1 mice. As to the kind of experiment: Anorexia test, oral dose route (milk consumption of fasted mice). The format is in vivo, mouse. As to conditions: for ED50: Mus musculus, oral, female CF1 mice fasted 17 to 21 hours, dose at which treated mice would consume 50% as much milk as controls, milk 1/2 h after dose, 30 min count; for food intake in mice: summary statement on Table I. As to the method: Female CF1 mice, which had been fasted for 17 to 21 hours, were dosed orally with the test compound (ten or more mice per dose). One-half hour later, each mouse was transferred to an individual compartment (13.3 cm×12.7 cm×12.7 cm) with a 0.64 cm×0.64 cm wire mesh floor. Inside each compartment was a brass bar (13 cm×1.2 cm×1.2 cm) in the top of which were ten shallow, round spot depressions (0.8 cm diameter). Each depression contained 0.05 ml of 50% sweetened condensed milk.
Thirty minutes after the mice were transferred into the compartments, the number of milk spots each mouse had consumed was counted. Fractions of spots consumed also were estimated and counted. The percent anorexigenic effect was estimated by comparison of the mean number of spots of milk consumed per mouse at a given dose with the mean number of spots consumed per vehicle-treated control mouse. Dose-response curves were plotted and from these the ED50%, the dose at which treated mice would be expected to consume 50% as much milk as control mice, was calculated.

For the next test, the system named is Male CF1 mice. As to the kind of experiment: Anorexia test, subcutaneous dose route (milk consumption of fasted mice). The format is in vivo. To be noted: Mus musculus, sc, male CF1 mice fasted 17 to 21 hours, dose at which treated mice would consume 50% as much milk as controls, milk 7 1/2 to 15 min after dose, 10 min count. The procedure:
Male CF1 mice, which had been fasted for 17 to 21 hours, were dosed subcutaneously with the test compound (20 mice per dose) and placed into an individual compartment (13.3 cm×12.7 cm×12.7 cm) with a 0.64 cm×0.64 cm wire mesh floor. 71/2 to 15 minutes later a black Lucite bar (13 cm×1.2 cm×1.2 cm) in the top of which were ten shallow round spot depressions (0.8 cm diameter) was inserted into each compartment. Each depression contained 0.05 ml of 50% sweetened condensed milk.
Ten minutes after the milk was presented to the mice, the number of milk spots each mouse had consumed was counted. Fractions of spots consumed also were estimated and counted. Dose-response curves were plotted and from these the ED50%, the dose at which treated mice would be expected to consume 50% as much milk as control mice, was calculated.

Test [1] is described as follows: Analgesic/narcotic antagonist property. As to conditions: stated in words, no test described.

Turning to `C=CCN1CC[C@]23c4c5ccc(O)c4O[C@H]2C(=O)CC[C@@]3(O)[C@H]1C5` [naloxone, N-allyl-14-hydroxy-7,8-dihydronormorphinone], the “eating by food-deprived mice” value in the test with food-deprived mice was “not by food-deprived mice”. In addition, the “eating by food-deprived rats” value with food-deprived rats was “suppresses eating”. For the same compound, in the test with rats, the “fluid intake of rats” value is recorded as “reduced”.

As for `O=C1CC[C@@]2(O)[C@H]3Cc4ccc(O)c5c4[C@@]2(CCN3CC2CC2)[C@H]1O5` [Naltrexone, (-)-17-cyclopropylmethyl-4,5α-epoxy-3,14-dihydroxymorphinan-6-one], the appetite suppression result with mammals was “appetite suppression”. The ED50 in the test with Female CF1 mice is 3 mg/kg; with Male CF1 mice it was 0.4 mg/kg. Besides, the “fluid intake of rats” value with rats is given as “reduced”.

Regarding `CCNC(C)Cc1cccc(C(F)(F)F)c1` (centres unmarked) [Fenfluramine], the ED50 with Female CF1 mice is 13.5 mg/kg; in the test on Male CF1 mice, 7.6 mg/kg.

Turning to `Cl.Oc1ccc2c3c1O[C@H]1CCC[C@@]4(O)[C@@H](C2)N(CC2CC2)CC[C@]314` [Example 1, 17-Cyclopropylmethyl-4,5α-epoxymorphinan-3,14-diol, Hydrochloride], in the test with Female CF1 mice, the 50% effect level (ED50) was put at a dose of 2.5 mg/kg and the “food intake in mice” value is reported as “decreased food intake”.

In the case of `Oc1ccc2c3c1O[C@H]1CCC[C@@]4(O)[C@@H](C2)N(CC2CCC2)CC[C@]314` [17-cyclobutylmethyl-4,5α-epoxymorphinan-3,14-diol], the analgesic/narcotic antagonist property entry in test [1] is on record as “mixed analgesic/narcotic antagonist”.

As for `C=CCN1CC[C@]23c4c5ccc(O)c4O[C@H]2[C@@H](O)C=C[C@H]3[C@H]1C5` [nalorphine, N-allylnormorphine], the “fluid intake of rats” value with rats was “reduced”.

Turning to `Oc1ccc2c3c1O[C@H]1CCC[C@@]4(O)[C@@H](C2)N(CC2CC2)CC[C@]314` [17-cyclopropylmethyl-4,5α-epoxymorphinan-3,14-diol], the analgesic/narcotic antagonist property entry in test [1] is “narcotic antagonist”.

Turning to `Cl.Oc1ccc2c3c1O[C@H]1CCC[C@@]4(O)[C@@H](C2)N(CC2CCC2)CC[C@]314` [Example 2, 17-Cyclobutylmethyl-4,5α-epoxymorphinan-3,14-diol, Hydrochloride], in the test on Female CF1 mice, the 50% effect level (ED50) was put at a dose of 84 mg/kg and the “food intake in mice” value was “decreased food intake”. The compound also returned an ED50 with Male CF1 mice of 3.2 mg/kg.
